Data on one substance can be found in patent US20030207843A1, “Treatment of drug-resistant human immunodeficiency virus infection” (priority 1999, published 2003).

What all share (type): cell-based
Experiment [1] has as its system HIV-1LAI (wild type, control). Kind of experiment: p24 reduction assay in MT-2 cells, wild type virus. The settings on record: Table 6; baseline virus HIV-1LAI passage 0; read-out: EC50. The method, then:
(§1) Cells. MT-2 cells (AIDS Research and Reference Reagent Program, National Institute of Allergy and Infectious Diseases, National Institutes of Health) were maintained in RPMI 1640 supplemented with 10% fetal bovine serum (FBS; JRH Biosciences, Lenexa, Kans.), 10 mM HEPES buffer, 50 IU/ml penicillin and 50 μg/ml streptomycin.
Viruses. Stock virus was prepared by electroporating (BIO-RAD Gene Pulser®, Hercules, Calif.) MT-2 cells (1.3×10^7 cells) with 5-10 μg of plasmid DNA encoding a proviral clone of HIV-1LAI (see Nguyen, et. al., Antimicrob. Agents Chemother. 38:2409-2414, and Peden, et. al., Virology 185: 661-672.). At peak cytopathic effect (generally 5-7 days post-transfection), culture supernatants were harvested and stored at −80° C. Viral infectivity titers were determined in threefold endpoint dilution assays conducted in MT-2 cells (six wells per dilution). The 50% tissue culture infective dose (TCID50) was calculated using the Reed and Muench equation (see Reed, et. al., Am. J. Hyg. 27:493-496).
Antiviral Susceptibility Assays. The antiviral activity of each compound […], followed by incubation in the presence of three-fold serial drug dilutions (3 wells per dilution) (see Mellors, et. al., Antimicrob. Agents Chemother. 39:1087-1092). Five or seven days after infection, culture supernatants were harvested, lysed with 0.5% triton-X 100 and assayed for p24 antigen concentration using a commercial ELISA assay (DuPont, NEN Products, Wilmington, Del.). The antiviral activity of the compounds is expressed as the IC50, which is the concentration required to inhibit 50% of p24 antigen production. The fold-resistance of a test virus is calculated by dividing the IC50 of the test virus by the IC50 of the HIV-1LAI control virus.
Cultures of MT-2 cells infected with either wild type (xxLAI) or with the drug-resistant strains of HIV-1 listed above were treated with lipid analogs of PFA (B-PFA, MB-PFA, or EB-PFA). The μM concentration required to produce 50% inhibition of replication of the drug-resistant strain of HIV (EC50) was determined as shown in Table 1. Drug effects were measured by assaying p24 (a viral protein) in the culture medium.

Experiment [2] relates to HIV-1LAI selected with DB-PFA, passage 18 (S117T, L214F). The experiment is described as follows: Susceptibility of virus selected in vitro with DB-PFA. The method, then: (§2) Antiviral Susceptibility Assays. The antiviral activity of each compound was determined by inoculating MT-2 cells with HIV-1LAI at a multiplicity of infection (MOI) of 0.01 TCID50/cell, followed by incubation in the presence of three-fold serial drug dilutions (3 wells per dilution) (see Mellors, et. al., Antimicrob. Agents Chemother. 39:1087-1092). Five or seven days after infection, culture supernatants were harvested, lysed with 0.5% triton-X 100 and assayed for p24 antigen concentration using a commercial ELISA assay (DuPont, NEN Products, Wilmington, Del.). The antiviral activity of the compounds is expressed as the IC50, which is the concentration required to inhibit 50% of p24 antigen production. The fold-resistance of a test virus is calculated by dividing the IC50 of the test virus by the IC50 of the HIV-1LAI control virus.
Selection of Resistant Viruses. […] Viral cytopathic effects (CPE) were monitored daily. […] The passaged virus was monitored regularly for a reduction in susceptibility to the compounds by determining the EC50 relative to unpassaged HIV-1LAI (Mellors, et. al., Antimicrob. Agents Chemother. 39:1087-1092). […]

The subject of another experiment is HIV-1LAI S117T. Kind of experiment: p24 reduction assay in MT-2 cells, S117T. The settings on record: Example 6, recombinant virus encoding S117T. The method, then:
as §1, §2
(§3) Generation of Mutant Recombinant HIV-1. HIV-1 containing the desired mutations were generated by oligonucleotide directed mutagenesis (Altered Sites II, Promega) as previously described (Mellors, et. al., Molecular Pharm. 41:446-451). After mutagenesis, mutant RT was subcloned into the pxxHIV-1LAI cloning vector using the silent XmaI and XbaI restriction sites located at the 5′ and 3′ ends of RT. Clones were DNA sequenced to verify the presence of the desired mutation(s) and electroporated into MT-2 cells as described above to generate infectious mutant recombinant HIV-1.
Mutant RT was generated via oligonucleotide-directed mutagenesis and ligated into the pXXHIV-1LAI cloning vector. Cloning was facilitated by the presence of two silent restriction sites at the 5′ and 3′ ends (Xma1 and Xba1, respectively) of pXXHIV-1LAI RT. Infectious mutant recombinant HIV-1 was generated by electroporating MT-2 cells with mutated pXXHIV-1LAI clones. The presence of the desired mutations was verified by DNA sequencing.
DNA sequencing identified two mutations in RT: S117T and L214F.
(§4) Recombinant viruses containing the mutations selected by invention compounds were also evaluated for their susceptibility to AZT, as shown in Table 8.

The test system of another experiment is HIV-1LAI S117T/L214F. The experiment is described as follows: p24 reduction assay in MT-2 cells, S117T/L214F. The settings on record: Example 6; recombinant virus encoding S117T plus L214F. As for the experimental part: as §1, §2, §3
Mutant RT was generated via oligonucleotide-directed mutagenesis and ligated into the pXXHIV-1LAI cloning vector. […]
as §4

Consider “1-O-octadecyl-propanediol-3-PFA [DB-PFA]”, for which the half-maximal effective concentration (EC50) in experiment [1] came out at 0.83 µM; in experiment [2] (Table 6, passage 18 (S117T, L214F)) it was 8.97 µM; with HIV-1LAI S117T (read-out: EC50) it was 9 µM. For the same substance, the Fold resist. in experiment [2] (Table 6, passage 18, relative to passage 0) is on record as 10.8. Further, the Fold resistance turned out to be 10.0 fold in the experiment on HIV-1LAI S117T and 9.7 fold in the experiment with HIV-1LAI S117T/L214F.

One may read the EC50 as the concentration at which the effect is half-maximal.
